From ChEMBL document CHEMBL3885881, “DrugMatrix”

Species: Rattus norvegicus
Test: DrugMatrix - Regimen: Daily Repeat
Assay type: toxicity, organism-based, Sprague-Dawley
Set-up: regimen Daily Repeat, gender Male, age 6-8 weeks
Settings: in vivo, po, 620 mg/kg, route oral GAVAGE, dose level High, vehicle 100 % WATER; for BASOPHIL / EOSINOPHIL / ERYTHROCYTE COUNT / HEMATOCRIT / HEMOGLOBIN / LEUKOCYTE COUNT / LYMPHOCYTE / MEAN CORPUSCULAR HEMOGLOBIN / MEAN CORPUSCULAR HEMOGLOBIN CONCENTRATION / MEAN CORPUSCULAR VOLUME / MONOCYTE / NEUTROPHIL / PLATELET COUNT: tissue Blood; for ALANINE AMINOTRANSFERASE / ALBUMIN / ALKALINE PHOSPHATASE / ASPARTATE AMINOTRANSFERASE / BLOOD UREA NITROGEN / CARBON DIOXIDE / CHLORIDE / CHOLESTEROL / CREATINE PHOSPHOKINASE / CREATININE / GLUCOSE / LACTATE DEHYDROGENASE / LIPASE / PHOSPHORUS / POTASSIUM / SODIUM / TOTAL BILIRUBIN / TOTAL PROTEIN / URIC ACID: tissue Plasma

In the case of `OCCNCCO` [DIETHANOLAMINE], the BASOPHIL (72 h, time 3 day) is reported as 0.67%, the EOSINOPHIL (72 h, time 3 day) is reported as 0.37% and the “ERYTHROCYTE COUNT” value (72 h, time 3 day) is reported as 6.14 x10E6/uL. For the same compound, the HEMATOCRIT (72 h, time 3 day) was 41.37%, the HEMOGLOBIN (72 h, time 3 day) was 13.23 G/DL and the “LEUKOCYTE COUNT” value (72 h, time 3 day) was 8.17 x10E3/uL. For the same compound, the LYMPHOCYTE (72 h, time 3 day) was 87.67%, the “MEAN CORPUSCULAR HEMOGLOBIN” value (72 h, time 3 day) was 21.6 pg and the “MEAN CORPUSCULAR HEMOGLOBIN CONCENTRATION” value (72 h, time 3 day) was 32.1 G/DL. For the same compound, the “MEAN CORPUSCULAR VOLUME” value (72 h, time 3 day) was 67.4 fL, the MONOCYTE (72 h, time 3 day) was 2.03% and the NEUTROPHIL (72 h, time 3 day) was 6.8%. For the same compound, the “PLATELET COUNT” value (72 h, time 3 day) was 1227 x10E3/uL, the “ALANINE AMINOTRANSFERASE” value (72 h, time 3 day) was 45.67 u/L and the ALBUMIN (72 h, time 3 day) was 4.33 G/DL. For the same compound, the “ALKALINE PHOSPHATASE” value (72 h, time 3 day) was 468 u/L, the “ASPARTATE AMINOTRANSFERASE” value (72 h, time 3 day) was 125.67 u/L and the “BLOOD UREA NITROGEN” value (72 h, time 3 day) was 18 mg/dL. The “CARBON DIOXIDE” value (72 h, time 3 day) was 24.33 mmol/L, the CHLORIDE (72 h, time 3 day) was 111 MEQ/L and the CHOLESTEROL (72 h, time 3 day) was 75 mg/dL. The “CREATINE PHOSPHOKINASE” value (72 h, time 3 day) was 164.33 u/L, the CREATININE (72 h, time 3 day) was 0.5 mg/dL and the GLUCOSE (72 h, time 3 day) was 181.67 mg/dL. For the same compound, the “LACTATE DEHYDROGENASE” value (72 h, time 3 day) was 102.67 u/L, the LIPASE (72 h, time 3 day) was 21.33 u/L and the PHOSPHORUS (72 h, time 3 day) was 13.47 mg/dL. The POTASSIUM (72 h, time 3 day) was 6.33 MEQ/L, the SODIUM (72 h, time 3 day) was 154.33 MEQ/L and the “TOTAL BILIRUBIN” value (72 h, time 3 day) was 0.3 mg/dL. The “TOTAL PROTEIN” value (72 h, time 3 day) was 6.5 G/DL, the “URIC ACID” value (72 h, time 3 day) was 2.07 mg/dL and the BASOPHIL (120 h, time 5 day) was 0.47%. The EOSINOPHIL (120 h, time 5 day) was 0.37%, the “ERYTHROCYTE COUNT” value (120 h, time 5 day) was 6.72 x10E6/uL and the HEMATOCRIT (120 h, time 5 day) was 42.63%. The HEMOGLOBIN (120 h, time 5 day) was 13.57 G/DL, the “LEUKOCYTE COUNT” value (120 h, time 5 day) was 7.2 x10E3/uL and the LYMPHOCYTE (120 h, time 5 day) was 85.43%. For the same compound, the “MEAN CORPUSCULAR HEMOGLOBIN” value (120 h, time 5 day) was 20.17 pg, the “MEAN CORPUSCULAR HEMOGLOBIN CONCENTRATION” value (120 h, time 5 day) was 31.77 G/DL and the “MEAN CORPUSCULAR VOLUME” value (120 h, time 5 day) was 63.43 fL. For the same compound, the MONOCYTE (120 h, time 5 day) was 2.37%, the NEUTROPHIL (120 h, time 5 day) was 9.9% and the “PLATELET COUNT” value (120 h, time 5 day) was 1342 x10E3/uL. For the same compound, the “ALANINE AMINOTRANSFERASE” value (120 h, time 5 day) was 54.33 u/L, the ALBUMIN (120 h, time 5 day) was 4.7 G/DL and the “ALKALINE PHOSPHATASE” value (120 h, time 5 day) was 407 u/L. For the same compound, the “ASPARTATE AMINOTRANSFERASE” value (120 h, time 5 day) was 196.33 u/L, the “BLOOD UREA NITROGEN” value (120 h, time 5 day) was 18.33 mg/dL and the “CARBON DIOXIDE” value (120 h, time 5 day) was 26 mmol/L. The CHLORIDE (120 h, time 5 day) was 109.33 MEQ/L, the CHOLESTEROL (120 h, time 5 day) was 82.67 mg/dL and the “CREATINE PHOSPHOKINASE” value (120 h, time 5 day) was 320.67 u/L. The CREATININE (120 h, time 5 day) was 0.33 mg/dL, the GLUCOSE (120 h, time 5 day) was 164.33 mg/dL and the “LACTATE DEHYDROGENASE” value (120 h, time 5 day) was 81.33 u/L. For the same compound, the LIPASE (120 h, time 5 day) was 24.67 u/L, the PHOSPHORUS (120 h, time 5 day) was 12.87 mg/dL and the POTASSIUM (120 h, time 5 day) was 5.67 MEQ/L. The SODIUM (120 h, time 5 day) was 152.67 MEQ/L, the “TOTAL BILIRUBIN” value (120 h, time 5 day) was 0.4 mg/dL and the “TOTAL PROTEIN” value (120 h, time 5 day) was 7.07 G/DL. The “URIC ACID” value (120 h, time 5 day) was 2.27 mg/dL, the BASOPHIL ([…], time 14 day) was 1.68% and the EOSINOPHIL ([…], time 14 day) was 0.28%. The “ERYTHROCYTE COUNT” value ([…], time 14 day) was 6.33 x10E6/uL, the HEMATOCRIT ([…], time 14 day) was 37.84% and the HEMOGLOBIN ([…], time 14 day) was 12.58 G/DL. The “LEUKOCYTE COUNT” value ([…], time 14 day) was 17.16 x10E3/uL, the LYMPHOCYTE ([…], time 14 day) was 79.3% and the “MEAN CORPUSCULAR HEMOGLOBIN” value ([…], time 14 day) was 19.88 pg. The “MEAN CORPUSCULAR HEMOGLOBIN CONCENTRATION” value ([…], time 14 day) was 33.26 G/DL, the “MEAN CORPUSCULAR VOLUME” value ([…], time 14 day) was 59.7 fL and the MONOCYTE ([…], time 14 day) was 1.7%. The NEUTROPHIL ([…], time 14 day) was 15.34%, the “PLATELET COUNT” value ([…], time 14 day) was 590 x10E3/uL and the “ALANINE AMINOTRANSFERASE” value ([…], time 14 day) was 40.2 u/L. For the same compound, the ALBUMIN ([…], time 14 day) was 4.34 G/DL, the “ALKALINE PHOSPHATASE” value ([…], time 14 day) was 449 u/L and the “ASPARTATE AMINOTRANSFERASE” value ([…], time 14 day) was 305.8 u/L. For the same compound, the “BLOOD UREA NITROGEN” value ([…], time 14 day) was 32.2 mg/dL, the “CARBON DIOXIDE” value ([…], time 14 day) was 27.6 mmol/L and the CHLORIDE ([…], time 14 day) was 106 MEQ/L. The CHOLESTEROL ([…], time 14 day) was 46.6 mg/dL, the “CREATINE PHOSPHOKINASE” value ([…], time 14 day) was 123.4 u/L and the CREATININE ([…], time 14 day) was 0.56 mg/dL. For the same compound, the GLUCOSE ([…], time 14 day) was 162 mg/dL, the “LACTATE DEHYDROGENASE” value ([…], time 14 day) was 58 u/L and the LIPASE ([…], time 14 day) was 19 u/L. The PHOSPHORUS ([…], time 14 day) was 12.6 mg/dL, the POTASSIUM ([…], time 14 day) was 5.54 MEQ/L and the SODIUM ([…], time 14 day) was 151 MEQ/L. For the same compound, the “TOTAL BILIRUBIN” value ([…], time 14 day) was 0.34 mg/dL, the “TOTAL PROTEIN” value ([…], time 14 day) was 6.32 G/DL and the “URIC ACID” value ([…], time 14 day) was 0.68 mg/dL.
